In ChEMBL document CHEMBL5584351:
One block for each compound: values may come before it. Active and inactive are the calls of the source. The calls are words filed in the database; no cut-off is given here.

Assays:
[1] = biological target: T1, Oxysterols receptor LXR-beta (Homo sapiens, UniProt P55055); assay: Agonist activity at GST tagged LXRbeta (unknown origin) using SRC1 as coactivator peptide incubated for 1 hr by coactivator recruitment based TR-FRET assay
T1 sequence (P55055 whole entry): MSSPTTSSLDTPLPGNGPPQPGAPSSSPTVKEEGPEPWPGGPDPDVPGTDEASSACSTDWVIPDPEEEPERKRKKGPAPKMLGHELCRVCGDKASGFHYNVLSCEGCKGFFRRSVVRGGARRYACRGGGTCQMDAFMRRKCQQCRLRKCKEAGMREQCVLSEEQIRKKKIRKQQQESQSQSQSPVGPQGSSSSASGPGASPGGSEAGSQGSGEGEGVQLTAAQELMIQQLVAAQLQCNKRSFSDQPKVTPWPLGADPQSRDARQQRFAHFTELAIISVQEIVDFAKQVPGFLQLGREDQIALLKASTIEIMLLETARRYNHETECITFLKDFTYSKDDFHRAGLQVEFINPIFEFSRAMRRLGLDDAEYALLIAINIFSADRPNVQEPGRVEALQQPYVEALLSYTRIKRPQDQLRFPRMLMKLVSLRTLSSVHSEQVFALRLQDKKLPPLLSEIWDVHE

[2] = biological target: T2, Oxysterols receptor LXR-alpha (Homo sapiens, UniProt Q13133); assay: Agonist activity at GST tagged LXRalpha (unknown origin) using SRC1 as coactivator peptide incubated for 1 hr by coactivator recruitment based TR-FRET assay
T2 sequence (Q13133 whole entry): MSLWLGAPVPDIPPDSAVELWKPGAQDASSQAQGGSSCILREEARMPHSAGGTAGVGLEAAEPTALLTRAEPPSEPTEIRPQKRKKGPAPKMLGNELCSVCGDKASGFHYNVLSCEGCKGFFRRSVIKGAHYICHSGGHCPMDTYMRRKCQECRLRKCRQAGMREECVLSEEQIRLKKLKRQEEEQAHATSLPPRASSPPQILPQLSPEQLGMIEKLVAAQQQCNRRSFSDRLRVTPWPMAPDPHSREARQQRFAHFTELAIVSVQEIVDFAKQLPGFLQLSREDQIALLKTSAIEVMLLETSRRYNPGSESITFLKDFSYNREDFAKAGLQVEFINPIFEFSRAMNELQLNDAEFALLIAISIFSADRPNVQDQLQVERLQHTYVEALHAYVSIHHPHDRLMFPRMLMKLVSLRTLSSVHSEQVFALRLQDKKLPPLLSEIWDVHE

[3] = biological target: Phospholipid-transporting ATPase ABCA1 (Homo sapiens, UniProt O95477); assay: Activation of ABCA1 (unknown origin)
Chain of Phospholipid-transporting ATPase ABCA1 (O95477 whole entry): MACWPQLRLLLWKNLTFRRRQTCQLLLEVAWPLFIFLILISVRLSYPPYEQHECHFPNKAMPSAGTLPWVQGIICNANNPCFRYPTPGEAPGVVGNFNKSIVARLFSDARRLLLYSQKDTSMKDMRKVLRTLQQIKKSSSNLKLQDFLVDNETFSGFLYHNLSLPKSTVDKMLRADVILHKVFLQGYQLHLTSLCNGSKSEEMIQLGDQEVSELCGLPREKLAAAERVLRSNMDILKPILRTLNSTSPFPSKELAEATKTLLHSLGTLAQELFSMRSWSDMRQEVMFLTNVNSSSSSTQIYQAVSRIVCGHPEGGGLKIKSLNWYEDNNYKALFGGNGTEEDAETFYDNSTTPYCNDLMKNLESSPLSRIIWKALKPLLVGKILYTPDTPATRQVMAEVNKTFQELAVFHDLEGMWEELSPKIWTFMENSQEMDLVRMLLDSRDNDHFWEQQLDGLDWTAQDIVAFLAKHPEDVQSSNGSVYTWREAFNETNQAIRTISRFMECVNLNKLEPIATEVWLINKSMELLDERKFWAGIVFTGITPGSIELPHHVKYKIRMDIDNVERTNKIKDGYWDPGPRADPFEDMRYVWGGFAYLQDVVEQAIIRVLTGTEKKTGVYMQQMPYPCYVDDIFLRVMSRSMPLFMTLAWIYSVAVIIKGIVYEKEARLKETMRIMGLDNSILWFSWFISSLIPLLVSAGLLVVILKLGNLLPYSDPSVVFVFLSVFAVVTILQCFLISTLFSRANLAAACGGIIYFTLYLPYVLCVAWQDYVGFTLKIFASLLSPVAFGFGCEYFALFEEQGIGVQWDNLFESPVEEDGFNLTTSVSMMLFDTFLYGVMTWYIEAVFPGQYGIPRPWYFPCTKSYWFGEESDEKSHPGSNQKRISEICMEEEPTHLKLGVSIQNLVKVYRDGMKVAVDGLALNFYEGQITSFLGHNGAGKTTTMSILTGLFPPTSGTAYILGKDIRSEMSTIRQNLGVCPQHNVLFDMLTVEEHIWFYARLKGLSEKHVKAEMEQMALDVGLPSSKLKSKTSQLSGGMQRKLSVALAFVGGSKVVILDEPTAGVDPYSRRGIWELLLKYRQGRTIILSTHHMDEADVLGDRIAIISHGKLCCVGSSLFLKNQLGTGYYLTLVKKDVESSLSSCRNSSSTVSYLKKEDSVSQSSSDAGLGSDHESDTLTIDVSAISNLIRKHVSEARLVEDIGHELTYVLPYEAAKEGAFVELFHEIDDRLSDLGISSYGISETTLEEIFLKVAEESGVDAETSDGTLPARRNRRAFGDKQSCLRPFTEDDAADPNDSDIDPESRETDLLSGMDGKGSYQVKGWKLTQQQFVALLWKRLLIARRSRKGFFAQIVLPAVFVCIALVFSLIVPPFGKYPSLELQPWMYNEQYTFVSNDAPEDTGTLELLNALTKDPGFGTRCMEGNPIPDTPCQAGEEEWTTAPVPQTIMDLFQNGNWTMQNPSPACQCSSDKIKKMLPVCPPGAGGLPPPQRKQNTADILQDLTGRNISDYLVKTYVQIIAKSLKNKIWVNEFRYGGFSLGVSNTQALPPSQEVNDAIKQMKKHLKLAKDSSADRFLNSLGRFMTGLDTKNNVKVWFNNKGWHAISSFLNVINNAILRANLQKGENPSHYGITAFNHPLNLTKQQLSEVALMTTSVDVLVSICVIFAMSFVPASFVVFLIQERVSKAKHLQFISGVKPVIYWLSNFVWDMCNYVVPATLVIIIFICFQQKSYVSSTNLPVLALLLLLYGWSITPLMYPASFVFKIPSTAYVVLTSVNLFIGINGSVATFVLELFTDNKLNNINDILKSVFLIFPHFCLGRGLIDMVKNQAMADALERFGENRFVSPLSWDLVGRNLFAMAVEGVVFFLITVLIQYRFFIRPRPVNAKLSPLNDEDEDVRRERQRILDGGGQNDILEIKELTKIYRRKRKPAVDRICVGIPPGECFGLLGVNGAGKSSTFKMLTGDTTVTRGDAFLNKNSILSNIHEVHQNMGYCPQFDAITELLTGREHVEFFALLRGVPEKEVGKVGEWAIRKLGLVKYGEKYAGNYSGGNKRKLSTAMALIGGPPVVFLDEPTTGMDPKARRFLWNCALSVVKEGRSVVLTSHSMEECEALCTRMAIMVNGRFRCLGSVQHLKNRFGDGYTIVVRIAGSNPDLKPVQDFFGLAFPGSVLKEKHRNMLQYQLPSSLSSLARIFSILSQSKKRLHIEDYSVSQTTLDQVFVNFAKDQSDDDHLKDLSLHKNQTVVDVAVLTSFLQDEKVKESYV

[4] = system: HepG2; assay: Agonist activity at LXR in human HepG2 cells assessed as upregulation of SREBF1 mRNA expression at 10 uM incubated for 24 hrs by qPCR analysis; type: cell-based; details: filed as agonist
[5] = biological target: T3, Bile acid receptor (Homo sapiens) (UniProt Q96RI1); assay: Agonist activity at FXR LBD (unknown origin) transfected in HEK293T cells by measuring maximal efficacy incubated for 16 hrs by Gal4-reporter gene based luciferase assay; type: cell-based
T3 sequence (whole entry): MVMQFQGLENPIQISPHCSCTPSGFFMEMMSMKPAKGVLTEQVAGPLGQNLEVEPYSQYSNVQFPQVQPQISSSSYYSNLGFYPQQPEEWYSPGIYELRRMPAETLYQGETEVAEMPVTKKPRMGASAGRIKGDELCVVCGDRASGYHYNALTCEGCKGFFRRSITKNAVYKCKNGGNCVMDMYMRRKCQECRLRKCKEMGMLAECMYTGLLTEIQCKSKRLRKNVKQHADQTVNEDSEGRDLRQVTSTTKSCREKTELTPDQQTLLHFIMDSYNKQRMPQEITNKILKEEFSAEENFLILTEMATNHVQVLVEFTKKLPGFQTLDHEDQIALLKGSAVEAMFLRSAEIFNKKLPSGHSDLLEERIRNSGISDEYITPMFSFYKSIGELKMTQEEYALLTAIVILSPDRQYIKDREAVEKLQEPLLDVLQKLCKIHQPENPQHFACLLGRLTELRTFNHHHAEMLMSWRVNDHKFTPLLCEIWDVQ

[6] = biological target: Phospholipid-transporting ATPase ABCA1 (Mus musculus) (UniProt P41233); assay: Activation of ABCA1 in mouse J774.2 cells assessed as increase in fluorescent-tagged cholesterol efflux at 1 uM incubated for 24 hrs by BODIPY based fluorescence analysis; type: cell-based; details: filed as activator
Chain of Phospholipid-transporting ATPase ABCA1 (Mus musculus) (P41233 whole entry): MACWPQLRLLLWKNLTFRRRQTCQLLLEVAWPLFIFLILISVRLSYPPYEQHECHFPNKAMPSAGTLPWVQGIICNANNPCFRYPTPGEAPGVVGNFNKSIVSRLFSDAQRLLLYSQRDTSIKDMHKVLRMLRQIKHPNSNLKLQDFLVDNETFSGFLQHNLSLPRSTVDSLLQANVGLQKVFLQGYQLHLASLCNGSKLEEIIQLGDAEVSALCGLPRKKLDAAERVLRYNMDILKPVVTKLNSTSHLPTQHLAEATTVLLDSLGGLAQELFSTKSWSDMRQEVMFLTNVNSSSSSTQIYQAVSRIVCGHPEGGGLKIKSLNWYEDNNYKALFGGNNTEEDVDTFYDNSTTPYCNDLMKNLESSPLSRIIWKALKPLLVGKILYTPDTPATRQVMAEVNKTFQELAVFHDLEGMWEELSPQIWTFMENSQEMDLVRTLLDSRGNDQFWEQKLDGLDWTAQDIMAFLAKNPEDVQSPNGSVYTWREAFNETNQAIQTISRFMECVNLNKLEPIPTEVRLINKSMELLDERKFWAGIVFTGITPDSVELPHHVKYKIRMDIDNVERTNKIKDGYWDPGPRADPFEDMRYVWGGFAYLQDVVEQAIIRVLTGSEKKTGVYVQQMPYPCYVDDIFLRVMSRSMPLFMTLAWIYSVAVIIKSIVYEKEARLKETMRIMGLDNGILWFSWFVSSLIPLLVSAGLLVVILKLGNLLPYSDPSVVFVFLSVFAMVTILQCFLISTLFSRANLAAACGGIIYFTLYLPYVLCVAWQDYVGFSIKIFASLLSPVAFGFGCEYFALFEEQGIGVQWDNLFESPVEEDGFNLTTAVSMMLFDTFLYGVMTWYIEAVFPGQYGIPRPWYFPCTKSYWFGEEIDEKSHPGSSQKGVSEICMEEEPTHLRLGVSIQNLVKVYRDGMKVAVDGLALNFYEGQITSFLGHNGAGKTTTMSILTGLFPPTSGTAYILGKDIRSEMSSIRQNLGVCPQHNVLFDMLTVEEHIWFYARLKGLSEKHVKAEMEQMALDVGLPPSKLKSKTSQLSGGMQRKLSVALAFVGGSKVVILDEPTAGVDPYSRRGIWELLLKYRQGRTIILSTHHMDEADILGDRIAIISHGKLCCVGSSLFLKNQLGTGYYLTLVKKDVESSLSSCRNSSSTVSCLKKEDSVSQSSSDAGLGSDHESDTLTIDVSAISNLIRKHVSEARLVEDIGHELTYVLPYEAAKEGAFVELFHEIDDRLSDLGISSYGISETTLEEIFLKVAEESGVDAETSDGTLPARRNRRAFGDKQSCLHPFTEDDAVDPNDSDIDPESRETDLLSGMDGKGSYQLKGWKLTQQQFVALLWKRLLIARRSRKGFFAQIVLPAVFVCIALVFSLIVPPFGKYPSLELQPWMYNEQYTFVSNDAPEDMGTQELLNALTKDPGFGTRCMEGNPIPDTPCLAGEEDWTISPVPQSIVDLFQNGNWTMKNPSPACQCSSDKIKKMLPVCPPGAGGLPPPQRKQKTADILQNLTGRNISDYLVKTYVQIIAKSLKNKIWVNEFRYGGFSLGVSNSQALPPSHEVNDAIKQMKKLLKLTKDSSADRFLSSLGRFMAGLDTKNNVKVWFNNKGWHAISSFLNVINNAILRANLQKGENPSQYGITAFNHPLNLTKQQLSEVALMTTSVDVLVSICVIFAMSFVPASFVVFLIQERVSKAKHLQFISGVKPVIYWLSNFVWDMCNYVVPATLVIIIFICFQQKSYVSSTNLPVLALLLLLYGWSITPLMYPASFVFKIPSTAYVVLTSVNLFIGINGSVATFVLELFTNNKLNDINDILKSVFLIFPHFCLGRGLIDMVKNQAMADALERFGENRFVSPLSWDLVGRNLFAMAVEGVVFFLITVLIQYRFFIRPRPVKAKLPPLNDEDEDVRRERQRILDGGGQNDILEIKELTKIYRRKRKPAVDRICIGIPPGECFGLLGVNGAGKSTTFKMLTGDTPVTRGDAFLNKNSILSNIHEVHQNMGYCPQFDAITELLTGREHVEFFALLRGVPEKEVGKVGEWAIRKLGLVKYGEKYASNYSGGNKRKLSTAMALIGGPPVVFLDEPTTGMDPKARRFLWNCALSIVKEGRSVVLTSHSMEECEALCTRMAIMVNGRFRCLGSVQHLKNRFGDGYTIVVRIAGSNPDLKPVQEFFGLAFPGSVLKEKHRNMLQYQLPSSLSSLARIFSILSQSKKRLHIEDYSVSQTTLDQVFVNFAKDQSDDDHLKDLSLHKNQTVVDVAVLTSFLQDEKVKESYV

[7] = Toxicity in wild type C57BL/6 mouse assessed as change in ABCA1 protein expression in brain at 10 mg/kg,po administrated for 7 days by immunoblotting analysis; type: organism-based; details: in vivo, 168 h, time 7 day

- EC50 [1]: 13 µM
- EC50 [2]: 4.8 µM
SMILES: CCOC(=O)c1cccc(NC(=O)c2sc(Cl)cc2S(=O)(=O)N(C)c2ccc(OCC)cc2)c1

- EC50 [2]: 11 µM
SMILES: CCOC(=O)c1cccc(NC(=O)c2sc(Cl)cc2S(=O)(=O)N(C)c2ccc(N(C)C)cc2)c1

- EC50 [1]: > 25 µM
SMILES: CCOc1ccc(N(C)S(=O)(=O)c2ccsc2C(=O)Nc2cccc(C(=O)OC)c2)cc1

- EC50 [1]: 11 µM
SMILES: CCCOc1ccc(N(C)S(=O)(=O)c2ccsc2C(=O)Nc2cccc(C(=O)OCC)c2)cc1

- EC50 [1]: 4.5 µM
- EC50 [2]: 3.5 µM
SMILES: CCOC(=O)c1cccc(NC(=O)c2sccc2S(=O)(=O)N(C)c2ccc(OCC)c(OCC)c2)c1

- Emax [5]: 35%
- Activity [6]: Active
SMILES: O=S(=O)(c1ccccc1)N(CC(F)(F)F)c1ccc(C(O)(C(F)(F)F)C(F)(F)F)cc1
- Activity [4]: Active

- EC50 [2]: 0.95 µM
SMILES: CCOC(=O)c1cccc(NC(=O)c2sc(Cl)cc2S(=O)(=O)N(C)c2ccc(OCC)c(OC)c2)c1

Further lines, the compound ahead of its results:

SMILES: CCOc1ccc(N(C)S(=O)(=O)c2cc(Cl)sc2C(=O)Nc2cc(Cl)cc(C(=O)OCCOC)c2)cc1OC
- EC50 [1]: 0.58 µM

SMILES: CCOc1ccc(N(C)S(=O)(=O)c2cc(Cl)sc2C(=O)Nc2cccc(C(=O)OCCOCCOC)c2)cc1OCC
- EC50 [2]: > 25 µM

SMILES: CCOc1ccc(N(C)S(=O)(=O)c2cc(Cl)sc2C(=O)Nc2cc(Cl)cc(C(=O)OCCOCCOC)c2)cc1OC
- EC50 [2]: 1 µM

SMILES: CCOC(=O)c1cccc(-c2nnc(-c3sc(Cl)cc3S(=O)(=O)N(C)c3ccc(OCC)c(OC)c3)o2)c1
- EC50 [2]: > 25 µM

SMILES: CN(CC(=O)Nc1ccc(F)c(F)c1F)C(=O)c1ccc2c(c1)OCCO2
- EC50 [3]: > 1 µM

SMILES: O=C(O)Cc1cccc(OCCCN(Cc2cccc(C(F)(F)F)c2Cl)CC(c2ccccc2)c2ccccc2)c1
- Activity [7]: Toxic

SMILES: CCOc1ccc(N(C)S(=O)(=O)c2cc(Cl)sc2C(=O)Nc2cccc(C(=O)OCCOC)c2)cc1OCC
- EC50 [1]: 15 µM

SMILES: CCOc1ccc(N(C)S(=O)(=O)c2cc(Cl)sc2C(=O)Nc2cc(Cl)cc(C3OCCO3)c2)cc1OC
- EC50 [1]: 13 µM
- EC50 [2]: 15 µM
